Measurements: US12053480B2, “Methods and pharmaceutical compositions for treating peripheral demyelinating diseases” (INSERM (INSTITUT NATIONAL DE LA SANTE ET DE LA RECHERCHE …, priority 2015, dated 2024)

Key:
mSC mitochondria = assay: Mitochondrial pH imaging (mito-SypHer) in mSC of mouse sciatic nerve; assay type: in vivo; conditions: after nerve crush
Procedure: (§1) Mice were anesthetized with isoflurane inhalation and placed under a Stemi2000 microscope (Zeiss). Incision area was shaved and cleaned using betadine solution. After incision, the gluteus superficialis and biceps femoris muscles were separated to reveal the cavity traversed by the sciatic nerve. The nerve was lift out using spatula and a thin glass needle filled with viral solution (8 μl) was introduced into the nerve with a micromanipulator. This solution was injected over 30 min with short pressure pulses using a Picospritzer III (Parker Hannifin) coupled to a pulse generator. After injection, the nerve was replaced into the cavity, the muscles were readjusted, and the wound was closed using clips (for further details see Gonzalez et al., 2014^3).
TRO19622 drug (Tocris bioscience, Ref. 2906) was diluted in ethanol to 20 mM and then, the solution was diluted in sterile PBS to 20 μM. TRO19622 treatments were realized by 3 mg/kg intraperitoneal (IP) injections of 20 mM solution or by intra sciatic nerve injections of 2 μl of drug solution 2 μM using a Hamilton syringe or a glass needle in sterile conditions 30 minutes before multiphoton image acquisitions or immunohistochemistry and demyelination studies respectively. Methyl jasmonate drug (Sigma-Aldrich, Ref. 392707) was diluted in 1 ml of sterile PBS to 1M or 3M. Methyl jasmonate treatments were realized by intra sciatic nerve injections of 1 μl of drug solution using a glass needle and micromanipulator in sterile conditions following the same virus injections procedure (see in vivo virus injection in the sciatic nerve method) two hours before multiphoton image acquisition. […] All drug concentrations were previously evaluated by Bordet et al, 2007^5; Goldin et al, 2008^6; Sharov et al, 2007^7.
First injected mouse was anesthetized with 5% of isoflurane a 1.5% of oxygen into the anesthesia system box (World Precision Instruments, Ref. EZ-B800) for 5 minutes. Anesthesia controls were realized^8. Then, mouse was placed in anesthesia mask and the incision area was shaved and cleaned with betadine and ethanol 70% solution. […]

VDAC1 = target: T1, VDAC1 (Mus musculus, UniProt Q60932); assay: Fluorescent probe imaging of mSC mitochondria in diabetic db/db mice, basal conditions; assay type: in vivo
T1 construct: strongly expressed in mSC mitochondria; from tissue; host or cells: myelinating Schwann cells (mSC) of the sciatic nerve of living mice (wild type; db/db and +/db in A10)
T1 sequence (Q60932 14-296): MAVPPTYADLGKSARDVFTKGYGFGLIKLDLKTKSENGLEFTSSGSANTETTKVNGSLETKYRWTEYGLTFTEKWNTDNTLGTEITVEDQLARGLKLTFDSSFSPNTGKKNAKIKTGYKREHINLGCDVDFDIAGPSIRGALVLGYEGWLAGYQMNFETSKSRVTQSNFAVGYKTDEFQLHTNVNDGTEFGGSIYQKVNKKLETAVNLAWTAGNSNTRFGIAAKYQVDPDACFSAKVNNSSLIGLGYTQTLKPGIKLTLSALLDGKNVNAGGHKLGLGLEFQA
Procedure: as §1
TRO19622 drug (Tocris bioscience, Ref. 2906) was diluted in ethanol to 20 mM and then, the solution was diluted in sterile PBS to 20 μM. TRO19622 treatments were realized by 3 mg/kg intraperitoneal (IP) injections of 20 mM solution or by intra sciatic nerve injections of 2 μl of drug solution 2 μM using a Hamilton syringe or a glass needle in sterile conditions 30 minutes before multiphoton image acquisitions or immunohistochemistry and demyelination studies respectively. […] All drug concentrations were previously evaluated by Bordet et al, 2007^5; Goldin et al, 2008^6; Sharov et al, 2007^7. […]

diabetic (db/db) mice [1] = assay: Electrophysiology (CMAP, NCV) in diabetic mice; assay type: in vivo, mouse; conditions: after 30 days of treatment
Procedure: Standard electroneurography was performed before, during and after TRO 19622 drug treatment on CMT1A rats and diabetic mice that were anesthetized with 3% isoflurane. A pair of steel needle electrodes (AD Instruments, MLA1302, Oxford, UK) was placed subcutaneously along the nerve at sciatic notch (proximal stimulation). A second pair of electrodes was placed along the tibial nerve above the ankle (distal stimulation). Supramaximal square wave pulses lasting 10 ms and 1 mA for mice and 3.6 mA for rats were delivered using a PowerLab 26T (AD Instruments, Oxford, UK). Compound muscle action potential (CMAP) was recorded from the intrinsic foot muscles using steel electrodes. Both amplitudes and latencies of CMAP were determined. The distance between the two sites of stimulation was measured alongside the skin surface with fully extended legs, and nerve conduction velocities (NCVs) were calculated automatically from sciatic nerve latency measurements (for further details Fledrich et al., 2014^10).
As previously reported^37, 38, we observed a reduction of the nerve conduction velocity in db/db diabetic mice with no change in the amplitude of the compound of action potentials (CMAP).

diabetic (db/db) mice [2] = assay: Behavioral tests (rotarod, grip, CatWalk) in diabetic mice; assay type: in vivo, mouse
Procedure: […] Mice and rats were first given a pretraining trial of two days to familiarize them with the rotating rod. For control and diabetic mice latency to fall was measured at fixed speed 10 rpm over a 180 s time as a cut-off. No acceleration testing was performed for mice. For control and CMT1A rats latency to fall and maximum rpm (revolutions per minute) were measured at accelerated speed. […] Each animal underwent three trials a day. For each day, data were averaged for each animal (values from the three trials), normalized according to animal weight and then averaged for each treated group.
[…] The runs were analyzed when the speed of crossing was constant and homogenous. At least three compliant runs were analyzed for each animal Data were averaged per animal, normalized according to animal weight and then per treated group. The resulting data provided quantitative parameters and qualitative walking patterns.
Neuromuscular strength of diabetic mice and CMT rats was assessed in standardized grip strength tests for front, hind and all limbs. All limbs grip strength was measured by rat supporting on the metal grid and pulling the animal's tail toward a horizontal grid connected to a gauge. Front and hind limb grip strength were measured by supporting the forelimbs or hindlimbs respectively and pulling the animal's tail toward a horizontal T-bar connected to a gauge. The maximum force (measured in newtons) exerted onto the T-bar or grid before the animals lost grip was recorded, and the mean of 3 repeated measurements was calculated. All data were normalized according to animal weight.
Finally, although the obesity of db/db diabetic mice hinders functional motor tests, we evaluated their neuromuscular performances during drug treatment using rotarod, grip and Catwalk tests. […] Rotarod and grip strength recoveries were not due to a reduced weight as no change in mice weight was observed during treatment.

mitochondrial motility (VDAC1): increased | mitochondrial pH (VDAC1): significantly reduced
SMILES: CC(C)CCC[C@@H](C)[C@H]1CC[C@H]2[C@@H]3CCC4=C/C(=N\O)CC[C@]4(C)[C@H]3CC[C@]12C [TRO19622, (NZ)—N-[(8S,9S,10R,13R,14S,17R)-10,13-dimethyl-17-[(2R)-6-methylheptan-2-yl]-1,2,6,7,8,9,11,12,14,15,16,17-dodecahydrocyclopenta[a]phenanthren-3-ylidene]hydroxylamine]
changes induced by nerve crush in mitochondrial pH not abrogated (mSC mitochondria): 12% | CMAP amplitude (diabetic (db/db) mice [1]): without change | nerve conduction velocity (diabetic (db/db) mice [1]): significantly increased to reach control mice velocity | Catwalk test parameters (diabetic (db/db) mice [2]): no change | myelin thickness, nerve conduction velocity and neuromuscular defects (all these parameters) (diabetic (db/db) mice [2]): steadily improve | effects on MAPK activation, nerve structure and neuromuscular performance after stopping the treatment (diabetic (db/db) mice [2]; 2 months after stopping the treatment): did not last | grip strength (diabetic (db/db) mice [2]; 20 days after treatment): significant increase | rotarod latency (diabetic (db/db) mice [2]; 20 days after treatment): significant increase
